Laboratory results published in patent US20030003396A1, “Optical data carrier comprising a merocyanine dye as light-absorbent compound in the information layer” (priority 2001, published 2003).
Marks after values point to notes of the source that are not given here.

Test: UV absorption spectra measured in solution
Format: physicochemical
Source text: In the case of a write-once optical data carrier according to the invention which is written on and read by means of the light of a blue laser, preference is given to merocyanine dyes whose absorption maximum λmax1 is in the range from 340 to 410 nm, […] half of the […] one tenth of the absorbance value at λmax1 are preferably not more than 50 nm apart. Such a merocyanine dye preferably has no longer-wavelength maximum λmax2 up to a wavelength of 500 nm, particularly preferably up to 550 nm, very particularly preferably up to 600 nm.
The absorption spectra are measured, for example, in solution.
Suitable merocyanines having the required spectral properties are, in particular, those in which the dipole moment change Δμ=|μg−μag|, i.e. the positive difference between the dipole moments in the ground state and in the first excited state, is very small, preferably <5 D, particularly preferably <2 D. A method of determining such a dipole moment change Δμ is described, for example, in F. Würthner et al., Angew. Chem. 1997, 109, 2933, and in the literature cited therein. A low solvent-induced wavelength shift (dioxane/DMF) is likewise a suitable selection criterion. Preference is given to merocyanines whose solvent-induced wavelength shift Δλ=|λDMF−λdioxane|, i.e. the positive difference between the absorption wavelengths in the solvents dimethylformamide and dioxane, is <20 nm, particularly preferably <10 nm, very particularly preferably <5 nm

[1] = Table 2, on the long wavelength flank
[2] = Table 3, on the short wavelength flank

SMILES	ε (Table 2) [L/mol/cm]	ε (Table 3) [L/mol/cm]	λmax (Table 3, in dioxane) [nm]	further results
CCCCN1C(=O)C(=CC=C2N(C)c3ccc(C(=O)OC)cc3C2(C)C)C(=O)c2ccccc21 [Example 53]	110332	–	–	λmax (Table 2, in dioxane): 500 nm
CCCCN1C(=O)C(=CC=C2Oc3ccccc3N2CC)C(C)=C(C#N)C1=O [Example 55]	109380	–	–	λmax (Table 2, in methylene chloride): 490^6) nm; Δλ (Table 2, |λDMF - λdioxane|): 5 nm
CN1C(=CC=C(C#N)c2nc3ccccc3s2)C(C)(C)c2ccccc21 [Example 57]	57230	–	–	λmax (Table 2, in dioxane): 462 nm; λ1/2-λ1/10 (Table 2, on the short wavelength flank): 34^3) nm
COC(=O)c1ccc2c(c1)C(C)(C)C(=CC=C(C#N)[n+]1ccccc1)N2C.[O-][Cl+3]([O-])([O-])[O-] [Example 58]	36010	–	–	λmax (Table 2, in methanol): 459^5) nm
CCN1CCCC1=CC=C(C#N)[n+]1ccccc1.[O-][Cl+3]([O-])([O-])[O-] [Example 59]	24400	–	–	λmax (Table 2, in methanol): 462^5) nm
CCN1CCCC1=CC=C1SC(=S)N(CC)C1=O [Example 60]	75006	–	–	λmax (Table 2, in dioxane): 466 nm; λ1/2-λ1/10 [1]: 10^4) nm
CCN1C(=O)C(=CC=C2N(C)c3ccccc3C2(C)C)SC1=S [Example 61]	36610	–	–	λmax (Table 2, in methylene chloride): 512^6) nm; λ1/2-λ1/10 [1]: 25^4) nm; Δλ (Table 2, |λmethylene chloride-λmethanol|): 36^7) nm
CCOC(=O)C(C#N)=c1[nH]c(=O)c(=CC=C2N(C)c3ccccc3C2(C)C)c(C)c1C(=O)OCC [Example 64]	–	–	–	λmax (Table 2, in methanol): 577^5) nm
CCOC(=O)C(C#N)=c1[nH]c(=O)c(=CC=C2N(C)c3ccc(C(=O)OC)cc3C2(C)C)c(C)c1C(=O)OCC [Example 65]	142900	–	–	λmax (Table 2, in methanol): 587^5) nm
Cc1c(C#N)c(=C(C#N)C#N)[nH]c(=O)c1=CC=C1N(C)c2ccccc2C1(C)C [Example 66]	–	–	–	λmax (Table 2, in methanol): 546^5) nm
COC(=O)c1ccc2c(c1)C(C)(C)C(=CC=c1c(C)c(C#N)c(=C(C#N)C#N)[nH]c1=O)N2C [Example 67]	50900	–	–	λmax (Table 2, in methanol): 554^5) nm
CCCN1C(=O)C(=CC=CN(C)C)C(C)=C(C#N)C1=O [Example 68]	–	77180	462	λ1/2-λ1/10 [2]: 28^3) nm; Δλ (Table 3, |λDMF-λdioxane|): 8 nm
CCCCN1C(=O)C(=CC=CN(C)C)C(C(F)(F)F)=C(C#N)C1=O [Example 71]	–	89100	–	λmax (Table 3, in DMF): 564^6) nm
CCCCN1C(=O)C(=CC=CN(C)c2ccccc2)C(C)=C(C#N)C1=O [Example 72]	–	79685	480	Δλ (Table 3, |λDMF-λdioxane|): 1.3 nm
CN(C=CC=C1C(=O)c2ccccc2C1=O)c1ccccc1 [Example 73]	–	84070	447	–
CCCN1C(=O)C(=CC=CN(C)c2ccc(OC)cc2)C(C)=C(C#N)C1=O [Example 74]	–	73010	482	Δλ (Table 3, |λDMF-λdioxane|): 4.3 nm
COc1ccc(N(C)C=CC=C2C(=O)NC(=O)C([n+]3ccccc3)=C2C)cc1.[O-][Cl+3]([O-])([O-])[O-] [Example 75]	–	62780	–	λmax (Table 3, in methanol): 469^5) nm
C=C(C)C(=O)OCCN1C(=O)C(=CC=CN2CCOCC2)C(C)=C(C#N)C1=O [Example 76]	–	89800	458	λ1/2-λ1/10 [2]: 28^3) nm
COC(=O)C(=CC=CN1CCOCC1)C(=O)OC [Example 78]	–	–	366	–
COC(=O)C(C#N)=CC=CN1CCOCC1 [Example 79]	–	62900	382	–
CCN1C(=O)C(=CC=CC=CN(C)c2ccccc2)C(C)=C(C#N)C1=O [Example 80]	–	119800	585	λ1/2-λ1/10 (Table 3, on the long wavelength flank): 28^4) nm
CCCN1C(=O)C(=CC(C)=CN(C)C)C(C)=C(C#N)C1=O [Example 83]	–	–	337	–
CCN1C(=O)C(=CC=CC=CN(C)C)C(C)=C(C#N)C1=O [Example 84]	–	149800	–	λmax (Table 3, in DMF): 552^6) nm
CCOC(=O)C(C#N)=c1[nH]c(=O)c(=CC=CN(C)C)c(C)c1C(=O)OCC [Example 85]	–	–	–	λmax (Table 3, in methanol): 509^5) nm
